Like-named read-outs stand apart in the source and are kept apart here.
Legend:
[1] = tested on: MDA-MB-231 human tumor xenograft; assay: MDA-MB-231 xenograft, tumor growth; assay type: in vivo; conditions: Mus musculus
Experimental: Before treatment, H1975, A431, or MDA-MB-231 cells were harvested from exponentially growing cultures, detached by brief trypsinization, washed twice in cold HBSS, resuspended in ice-cold HBSS, and implanted either s.c. (H1975, 3×10^6 cells per mouse) or i.d. (A431, 1×10^6 cells per mouse) into the dorsal hind flank or s.c. into the mammary fat pad (MDA-MB-231, 1×10^6 cells per mouse). Palpable tumors were measured by caliper twice weekly until the mean tumor weight was in the range of ˜80 to 120 mg. Tumor weight was determined by measuring perpendicular diameters with a caliper and multiplying the measurements of diameters in two dimensions: tumor volume (mm^3)/2=length (mm)×width (mm^2)/2. […] The mean tumor weight of each animal in the respective control and treatment groups was determined twice weekly during the dosing periods. […]
The response of tumors to treatment was determined by comparing the mean tumor weight of the treatment group with the appropriate control group. Percentage inhibition of tumor growth was determined with the following formula: Percentage inhibition=100×[1−(Xf−Xo)/(Yf−Yo)], where Xf and Yf are the mean tumor weights of the treatment and control groups, respectively, on day f, and Xo and Yo are the mean tumor weights of treatment and control groups respectively, on day zero (staged tumor weights after grouping)

Chk2 = target: T1, Chk2 (Homo sapiens, UniProt O96017); assay: Radiometric kinase assay; assay type: biochemical
T1 construct: Human, 5-543, N-; GST (N); His (C); purchased Upstate Biotechnology
T1 sequence (O96017 5-543): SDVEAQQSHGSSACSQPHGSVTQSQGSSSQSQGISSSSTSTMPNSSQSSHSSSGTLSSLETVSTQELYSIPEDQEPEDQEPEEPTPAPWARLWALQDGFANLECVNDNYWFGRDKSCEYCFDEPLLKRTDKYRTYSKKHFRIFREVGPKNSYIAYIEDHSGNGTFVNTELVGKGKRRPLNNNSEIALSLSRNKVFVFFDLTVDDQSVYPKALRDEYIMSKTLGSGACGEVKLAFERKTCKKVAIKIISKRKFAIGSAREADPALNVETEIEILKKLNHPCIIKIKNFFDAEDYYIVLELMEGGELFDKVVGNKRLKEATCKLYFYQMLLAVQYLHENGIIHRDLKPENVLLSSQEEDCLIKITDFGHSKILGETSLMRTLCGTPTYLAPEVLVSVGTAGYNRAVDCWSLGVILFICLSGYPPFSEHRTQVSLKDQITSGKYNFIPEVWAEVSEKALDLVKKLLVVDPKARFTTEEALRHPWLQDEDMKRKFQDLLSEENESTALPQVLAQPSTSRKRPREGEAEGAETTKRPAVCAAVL
Experimental: Further screening was performed using the biochemical assay methods of Example 2. Additional description of the components and concentrations are summarized in Table 8, Table 9, and Table 10, below.

[2] = target: EGFR Variant III (pTet-On/Lx-1) (Homo sapiens, UniProt P00533, DELINS30-297G); assay: EGFR phosphorylation ELISA in transfected Lx-1 cells
Sequence of EGFR Variant III (pTet-On/Lx-1) (P00533 with tags, fused parts or gaps DELINS30-297G): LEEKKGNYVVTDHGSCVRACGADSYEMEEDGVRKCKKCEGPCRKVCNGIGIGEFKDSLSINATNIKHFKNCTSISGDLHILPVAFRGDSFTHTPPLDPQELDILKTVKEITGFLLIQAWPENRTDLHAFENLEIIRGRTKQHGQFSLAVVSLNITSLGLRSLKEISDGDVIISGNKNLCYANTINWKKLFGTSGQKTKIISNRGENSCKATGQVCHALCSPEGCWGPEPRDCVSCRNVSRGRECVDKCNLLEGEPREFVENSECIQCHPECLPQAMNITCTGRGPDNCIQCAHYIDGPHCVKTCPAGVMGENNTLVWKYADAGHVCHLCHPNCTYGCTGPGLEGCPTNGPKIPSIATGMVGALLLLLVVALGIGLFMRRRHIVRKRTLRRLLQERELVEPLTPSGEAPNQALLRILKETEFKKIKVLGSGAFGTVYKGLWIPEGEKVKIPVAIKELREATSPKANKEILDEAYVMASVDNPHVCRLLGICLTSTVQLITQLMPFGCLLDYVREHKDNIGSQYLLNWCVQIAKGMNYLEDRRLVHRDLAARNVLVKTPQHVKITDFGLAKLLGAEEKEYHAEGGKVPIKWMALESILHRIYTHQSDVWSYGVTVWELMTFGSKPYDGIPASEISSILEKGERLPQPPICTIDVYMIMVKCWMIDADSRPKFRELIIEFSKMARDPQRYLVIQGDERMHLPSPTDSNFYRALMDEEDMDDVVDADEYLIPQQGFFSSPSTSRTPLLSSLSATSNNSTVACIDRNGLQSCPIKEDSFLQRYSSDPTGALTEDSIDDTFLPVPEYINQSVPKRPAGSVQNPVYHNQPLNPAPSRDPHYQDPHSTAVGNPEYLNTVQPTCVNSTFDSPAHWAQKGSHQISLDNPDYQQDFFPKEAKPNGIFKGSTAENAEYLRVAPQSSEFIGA
Source text: Lx-1 cells were used because they lack background EGFR activity. A clone corresponding to the longest EGFR isoform (Genbank accession no. NM_005228.3/NP_005219.2 #21-176, Upstate Biotechnology) was used as a template to produce two mutant EGFR genes (coding for L858R and L861Q) by site-directed mutagenesis. The WT and the two sequence-verified mutants were transferred to a COOH-terminal Flag-tagged retroviral cytomegalovirus promoter-driven mammalian expression vector. The two Tet-On expression vectors, EGFR WT (Tet-On) and EGFRvIII (Tet-On), which were COOH-terminally Flag tagged, were generously provided by Dr. Abhijit Guha (University of Toronto, Toronto, Ontario, Canada).
Transient transfections of Lx-1 cells were done using Lipofectamine 2000 (Invitrogen) according to the manufacturer's protocol. For transfections of the WT, L858R, and L861Q constructs, 1 μg plasmid DNA was used for each transfection (each well of a 12-well plate). […]
For the EGFR phosphorylation ELISA, Reacti-Bind streptavidin-coated plates (Pierce) were coated with 2 μg/mL biotin-conjugated anti-Flag antibody (Sigma). […] Horseradish peroxidase activity was determined by reading the plates in a Victor2 plate reader following addition of the ELISA Femto substrate.

bpk mice = tested on: bpk mice
Source text: The BPK model of ARPKD retains the same altered location of EGFR that is seen in murine and human ADPKD. This model is therefore widely accepted as a general means for affecting the EGFR abnormality in PKD, both ARPKD and ADPKD. The BPK model arose as a spontaneous mutation in an inbred colony of BALB/c mice. Homozygous bpk mice develop massively enlarged kidneys and die of renal failure at an average postnatal age of 24 days (PN-24). […] Extra renal manifestations include biliary proliferation and ductal ectasia. Because of the recessive nature of the disease, wild type +/+ and heterozygous bpk/+ mice are phenotypically normal. The primary measurement used in these studies is a comparison of the kidney weight to body weight ratio (KW/BW). […] Additional measurements include assessment of renal function (BUN, creatinine and MUCA) and histological evaluation of kidney size and collecting tubules-cystic index (CT-CI).
These animals were housed in Medical College of Wisconsin vivarium facilities. All animal experiments were conducted in accordance with policies of the NIH Guide for the Care and Use of Laboratory Animals and the Institutional Animal Care and Use Committee of the Medical College of Wisconsin.
Animals were treated from PN-7 through PN-21 and evaluated for extent of disease. The identity of […] animals can be readily determined post-mortem by the presence of greatly enlarged kidneys. On PN-21, the study was terminated and animals were sacrificed. The mass of each animal was determined. Both kidneys from each animal were excised and weighed. The kidney weight to body weight ratio (KW/BW) was determined by the following formula: KW/BW=[mass of both kidneys]/[mass of animal].
In addition, renal cystic index (CI) was calculated. Lectins specific to the proximal tubules (PTs) (lotus tetragonolobus [LTA]) and collecting tubules (CTs) (Dolichos biflorus agglutins [DBA]) were stained and used to assess severity of cystic dilations on a scale from 0-5. Renal function was assessed by obtaining BUN and creatinine levels via cardiac puncture. MUCA was measured after keeping the animals without water for 12 hrs.

PCK rat = assay type: in vivo; conditions: for CT-CI / Creatinine / Kidney/Body weight: PN Day 90
Source text: The phenotype of the PCK rat is different from that of humans in that it has a slower disease progression and slower decline in renal function. The PCK rats came from a mutated colony of Sprague-Dawley rats from Fujita Health University and were housed at the Medical College of Wisconsin.
Two hours after last injection on PN90 the rats were sacrificed and the kidneys and liver were removed and weighed. Post-mortem measurements included KW/BW ratio and cystic index (CI) using renal sections from the cortex, medulla, and papilla. CT-CI was then determined from cystic index which was based on renal cyst size at 15 day intervals from PN0 to PN135. Renal function was assessed with BUN and creatinine levels from cardiac puncture.

[3] = target: T2, Angiotensin II, AT1 (Human) (Homo sapiens, UniProt P30556); assay: NovaScreen assay; assay type: binding; conditions: read-out: Inhibition, 10 μM XL-647
T2 construct: NovaScreen
T2 sequence (P30556 whole entry): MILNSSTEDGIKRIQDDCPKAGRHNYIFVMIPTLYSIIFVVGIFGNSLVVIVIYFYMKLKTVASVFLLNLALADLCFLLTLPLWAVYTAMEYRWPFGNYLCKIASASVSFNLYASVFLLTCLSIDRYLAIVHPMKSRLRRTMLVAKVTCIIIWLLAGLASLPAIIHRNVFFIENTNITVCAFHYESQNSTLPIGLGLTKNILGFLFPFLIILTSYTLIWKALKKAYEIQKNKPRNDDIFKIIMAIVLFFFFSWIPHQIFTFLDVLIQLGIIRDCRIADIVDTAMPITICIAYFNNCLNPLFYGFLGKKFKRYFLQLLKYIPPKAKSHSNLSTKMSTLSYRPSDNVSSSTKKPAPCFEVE

[4] = 7.5 mg/kg/day, PN Day 21, 7.5 mg/kg/day
[5] = 7.5 mg/kg/day, PN Day 21, listed as PRIM-001, 7.5 mg/kg/day
[6] = 7.5 mg/kg/day, PN Day 90, 7.5 mg/kg/day
[7] = 7.5 mg/kg/day, PN Day 90, listed as PRIM-001, 7.5 mg/kg/day
[8] = 15 mg/kg/day, PN Day 90, 15 mg/kg/day
[9] = 15 mg/kg/day, PN Day 90, listed as PRIM-001, 15 mg/kg/day

Structure (SMILES): COc1cc2c(Nc3ccc(Cl)c(Cl)c3F)ncnc2cc1OC[C@@H]1C[C@@H]2CN(C)C[C@@H]2C1 [XL-647, N-(3,4-dichloro-2-fluorophenyl)-7-({[(3aR,5r,6aS)-2-methyloctahydrocyclopenta[c]pyrrol-5-yl]methyl}oxy)-6-(methyloxy)quinazolin-4-amine]
- ED50 ([1]; MDA-MB-231, qd × 14): 21.9 mg/kg
- ED50 ([1]; MDA-MB-231, qd × 28): 22.9 mg/kg
- IC50 (Chk2): > 10000 nM
- IC50 [2]: 74 nM
- decrease of CT-CI (bpk mice; 7.5 mg/kg q.d.): 25%
- decrease of KW/BW (bpk mice; 7.5 mg/kg q.d.): 21.5%
- decrease of creatinine (bpk mice; 7.5 mg/kg q.d.): 8.3%
- improvement of MUCA (bpk mice; 7.5 mg/kg q.d.): 20.1%
- reduction of kidney weight (bpk mice; 7.5 mg/kg q.d.): 21.8%
- decrease of BUN (bpk mice; 7.5 mg/kg q.d., 7.5 mg/kg): 42%
- BUN (bpk mice; 7.5 mg/kg/day, PN Day 21): 63.43 mg/dL
- CT-CI (bpk mice; 7.5 mg/kg/day, PN Day 21): 3.60
- Creatinine (bpk mice; 7.5 mg/kg/day, PN Day 21): 0.44 mg/dL
- MUCA (bpk mice; 7.5 mg/kg/day, PN Day 21): 560.0 mOsmol
- Kidney Weight (bpk mice; [4]): 1.61 ± 0.23 g
- Kidney/Body weight (bpk mice; [4]): 15.34±1.26%
- Kidney Weight (bpk mice; [5]): 1.61 g
- Kidney/Body weight (bpk mice; [5]): 15.34%
- decrease of BUN (bpk mice; 15 mg/kg q.d.): 60.5%
- decrease of CT-CI (bpk mice; 15 mg/kg q.d.): 45.8%
- decrease of creatinine (bpk mice; 15 mg/kg q.d.): 25%
- improvement of MUCA (bpk mice; 15 mg/kg q.d.): 66.2%
- reduction of kidney weight (bpk mice; 15 mg/kg q.d.): 40.3%
- BUN (bpk mice; 15 mg/kg/day, PN Day 21): 43.20 mg/dL
- CT-CI (bpk mice; 15 mg/kg/day, PN Day 21): 2.60
- Creatinine (bpk mice; 15 mg/kg/day, PN Day 21): 0.36 mg/dL
- Kidney/Body weight (bpk mice; 15 mg/kg/day, PN Day 21): 12.36%
- MUCA (bpk mice; 15 mg/kg/day, PN Day 21): 775.0 mOsmol
- Kidney Weight (bpk mice; 15 mg/kg/day, PN Day 21, 15 mg/kg/day): 1.28 ± 0.09 g
- Kidney Weight (bpk mice; 15 mg/kg/day, PN Day 21, listed as PRIM-001, 15 mg/kg/day): 1.28 g
- decrease of BUN level (PCK rat; 7.5 mg/kg q.d.): 19.2%
- decrease of kidney weight (PCK rat; 7.5 mg/kg q.d.): 13.4%
- reduction of CT-CI (PCK rat; 7.5 mg/kg q.d.): 19.6%
- CT-CI (PCK rat; 7.5 mg/kg/day): 5.63
- Creatinine (PCK rat; 7.5 mg/kg/day): 0.48 ± 0.09 mg/dL
- Kidney/Body weight (PCK rat; 7.5 mg/kg/day): 1.5%
- BUN (PCK rat; [6]): 27.50 ± 3.74 mg/dL
- Kidney Weight (PCK rat; [6]): 5.77 ± 0.47 g
- BUN (PCK rat; [7]): 27.50 ± 3.74 mg/dL
- Kidney Weight (PCK rat; [7]): 5.77 g
- decrease of BUN level (PCK rat; 15 mg/kg q.d.): 28.8%
- decrease of kidney weight (PCK rat; 15 mg/kg q.d.): 26.0%
- reduction of CT-CI (PCK rat; 15 mg/kg q.d.): 35.7%
- CT-CI (PCK rat; 15 mg/kg/day): 4.50
- Creatinine (PCK rat; 15 mg/kg/day): 0.46 ± 0.07 mg/dL
- Kidney/Body weight (PCK rat; 15 mg/kg/day): 1.31%
- BUN (PCK rat; [8]): 24.25 ± 4.3 mg/dL
- Kidney Weight (PCK rat; [8]): 4.93 ± 0.42 g
- BUN (PCK rat; [9]): 24.25 ± 4.30 mg/dL
- Kidney Weight (PCK rat; [9]): 4.93 g
- inhibition at 10 µM [3]: 6.85%
